Source: patent US5565425A, “Viral infection and proliferation inhibitors” (Snow Brand Milk Products Co., Ltd, priority 1993, dated 1996)
Bridge positions count the residues as written; N and C are the ends. Peptide text beside a SMILES is read from it.

What was measured:
[1] = tested on: influenza virus A/PR/8/34; settings: 100 μl of one mg/ml solution in allantoic cavity three hours before virus; average of five eggs
[2] = tested on: mouse cytomegalo virus (mouse CMV); test: Infection protective test against mouse CMV by the time of administration; format: in vivo; settings: mice, 0.10 g/kg i.p., after 10 days
Experimental: (Method) Male Balbc/AJcl mice, 4-week-old (10 in one group) were used. The sample was dissolved in phosphate buffer saline solution (PBS) and intraperitoneally administered to mice. […] Timing of administrations of the sample was made 48, 24, six and one hr. before, immediately after, one and six hrs. after the administration.

HIV (HTLV-IIIB) = test: Inhibitory activity against HIV infection and proliferation in MT-4 cells (indirect fluorescence antibody method); format: cell-based, human immunodeficiency virus (HIV); settings: three days, positive control 26.0%
Experimental: (Method) Cultured supernatant of MOLT-4/HTLV-IIIB cells, a HTLV-IIIB persistent infected strain of HIV, was used as a viral solution. The supernatant was kept at -80° C. Human T cell line MT-4 was used for the test. MT-4 was subcultured in RPMI 1640 medium containing 10% fetal calf serum (FCS). Sample, LF derived peptide, was dissolved in RPMI 1640 medium and one ml of the diluted solution at various concentrations was added to the cells. The inoculated MT-4 test sample was incubated for 60 minutes and infected with HIV at a concentration of moi […]=0.01 and one ml of the cell solution adjusted at a cell density of 3×10^5 cells/ml was added. The cells were cultured for three days : and HIV infected cells were determined with an indirect fluorescence antibody method.
HIV infected cells were determined by the indirect fluorescence antibody method using HIV infected patient serum as a primary antibody. […] HIV infected MT-4 cells cultured without addition of the sample was used as a positive control and cells without addition of viral solution was cultured to make a negative control group.

[3] = tested on: Human CMV (Tanaka strain); test: Inhibitory activity against human CMV infection and proliferation in HELF cells (fluorescence staining); format: cell-based, Human cytomegalo virus
Experimental: (Method) LF derived peptide was dissolved in 2% serum added MEM medium to give five mg/ml solution, filtered and sterilized to make a stock solution. The stock solution was diluted with 2% serum added MEM medium on use. Samples containing human embryo lung fibroblast cells (HELF cells) were suspended in 2% serum added MEM medium and incubated for 10 minutes. The cells were collected by centrifugation, washed twice with 2% serum added MEM medium and suspended in 2% serum added MEM medium. Human cytomegalo virus [Human CMV (Tanaka strain)] was added, incubated for 24 hrs., fluorescence stained with human CMV positive serum and the adsorption rate of human CMV to the cells was determined.
The results are judged from the numbers of fluorescent stained cells per one cover slip.

[4] = tested on: mouse cytomegalo virus (mouse CMV); test: In vivo inhibitory activity against mouse CMV infection (survival of mice); settings: after 10 days
Experimental: (Method) Male Balbc/AJcl mice, 4-week-old (10 in one group) were used. The sample was dissolved in phosphate buffer saline solution (PBS) and intraperitoneally administered to mice.

## CC[C@H](C)[C@H](NC(=O)[C@@H]1CSSC[C@H](NC(=O)[C@H](CCCCN)NC(=O)[C@@H](N)[C@@H](C)O)C(=O)N[C@@H](Cc2ccccc2)C(=O)N[C@@H](CCC(N)=O)C(=O)N[C@@H](Cc2c[nH]c3ccccc23)C(=O)N[C@@H](CCC(N)=O)C(=O)N[C@@H](CCCNC(=N)N)C(=O)N[C@@H](CC(N)=O)C(=O)N[C@@H](CCSC)C(=O)N[C@@H](CCCNC(=N)N)C(=O)N[C@@H](CCCCN)C(=O)N[C@@H](C(C)C)C(=O)N[C@@H](CCCNC(=N)N)C(=O)NCC(=O)N2CCC[C@H]2C(=O)N2CCC[C@H]2C(=O)N[C@@H](C(C)C)C(=O)N[C@@H](CO)C(=O)N1)C(=O)N[C@@H](CCCCN)C(=O)N[C@@H](CCCNC(=N)N)C(=O)N[C@@H](CC(=O)O)C(=O)N[C@@H](CO)C(=O)O [Human LF (18-42)] (H-TKCFQWQRNMRKVRGPPVSCIKRDS-OH; disulfide 3-20)
[1]
  Inhibitory rate of infection and proliferation of influenza virus: 96.9%
[2]; time of administration 0 hrs.
  Survival rate: 100%
[2]; time of administration +1 hrs.
  Survival rate: 100%
[2]; time of administration +6 hrs.
  Survival rate: 60%
[2]; time of administration -1 hrs.
  Survival rate: 100%
[2]; time of administration -6 hrs.
  Survival rate: 100%
[2]; time of administration -24 hrs.
  Survival rate: 100%
[2]; time of administration -48 hrs.
  Survival rate: 60%
HIV (HTLV-IIIB); sample 63 μg/ml
  ratio of stained (HIV infected) cells: 17%
HIV (HTLV-IIIB); sample 125 μg/ml
  ratio of stained (HIV infected) cells: 8.8%
HIV (HTLV-IIIB); sample 250 μg/ml
  ratio of stained (HIV infected) cells: 6.7%
HIV (HTLV-IIIB); sample 500 μg/ml
  ratio of stained (HIV infected) cells: 2.9%
HIV (HTLV-IIIB); sample 1,000 μg/ml
  ratio of stained (HIV infected) cells: 1.1%
[3]; 24 hrs., concentration not given
  Inhibitory rate of human CMV infection: 95.7%
[3]; concentration 0.04 mg/ml
  Inhibitory rate (human CMV infection and proliferation): 14.7%
[3]; concentration 0.1 mg/ml
  Inhibitory rate (human CMV infection and proliferation): 34.9%
[3]; concentration 0.2 mg/ml
  Inhibitory rate (human CMV infection and proliferation): 45.0%
[3]; concentration 0.4 mg/ml
  Inhibitory rate (human CMV infection and proliferation): 51.9%
[3]; concentration 1.0 mg/ml
  Inhibitory rate (human CMV infection and proliferation): 86.0%
[3]; concentration 2.0 mg/ml
  Inhibitory rate (human CMV infection and proliferation): 96.1%
[4]; 0.02 g/kg of body weight i.p. 24 hrs. before mouse CMV
  Survival rate: 20%
[4]; 0.05 g/kg of body weight i.p. 24 hrs. before mouse CMV
  Survival rate: 50%
[4]; 0.10 g/kg of body weight i.p. 24 hrs. before mouse CMV
  Survival rate: 100%
[4]; 0.50 g/kg of body weight i.p. 24 hrs. before mouse CMV
  Survival rate: 100%
